ChEMBL document CHEMBL1201862, “PubChem BioAssay data set” (2004)
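How tested: cells in 96-well plates exposed to compound for 48 hours at five concentrations. Abbreviation: GI50, concentration required for 50% inhibition of growth.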 Active and inactive are the calls of the source. Cut-off read from the data, not from the text of the source: active = GI50 up to about 1.1 µM and inactive = higher.

Columns and labels:
Experiment in all cases: DTP human tumour cell line panel, 48 h
[1] = test system: 786-0
[2] = test system: A498
[3] = test system: A549
[4] = test system: ACHN
[5] = test system: CAKI-1
[6] = test system: CCRF-CEM
[7] = test system: COLO 205
[8] = test system: DLD-1
[9] = test system: DMS-114
[10] = test system: DMS-273
[11] = test system: EKVX
[12] = test system: HCC 2998
[13] = test system: HCT-116
[14] = test system: HCT-15
[15] = test system: HL-60
[16] = test system: HOP-18
[17] = test system: HOP-62
[18] = test system: HOP-92
[19] = test system: HT-29
[20] = test system: IGROV-1
[21] = test system: K562
[22] = test system: KM-20L2
[23] = test system: KM12
[24] = test system: LOX IMVI
[25] = test system: LXFL 529
[26] = test system: M14
[27] = test system: M19-MEL
[28] = test system: MOLT-4
[29] = test system: Malme-3M
[30] = test system: NCI-H226
[31] = test system: NCI-H23
[32] = test system: NCI-H460
[33] = test system: NCI-H522
[34] = test system: OVCAR-3
[35] = test system: OVCAR-4
[36] = test system: OVCAR-5
[37] = test system: OVCAR-8
[38] = test system: RPMI-8226
[39] = test system: RXF 393
[40] = test system: SF-268
[41] = test system: SF-295
[42] = test system: SF-539
[43] = test system: SK-MEL-28
[44] = test system: SK-MEL-2
[45] = test system: SK-MEL-5
[46] = test system: SK-OV-3
[47] = test system: SN12C
[48] = test system: SNB-19
[49] = test system: SNB-75
[50] = test system: SNB-78
[51] = test system: SR
[52] = test system: SW-620
[53] = test system: TK-10
[54] = test system: U-251
[55] = test system: UACC-257
[56] = test system: UACC-62
[57] = test system: UO-31
[58] = test system: XF498

O=[N+]([O-])c1ccc(-n2nnc(C3=NCCN3)c2-c2ccccc2)cc1
GI50 [1]: > 100 µM (inactive) | GI50 [2]: > 100 µM (inactive) | GI50 [3]: > 100 µM (inactive) | GI50 [4]: > 100 µM (inactive) | GI50 [5]: > 100 µM (inactive) | GI50 [6]: > 100 µM (inactive) | GI50 [7]: > 100 µM (inactive) | GI50 [8]: > 100 µM (inactive) | GI50 [9]: > 100 µM (inactive) | GI50 [10]: > 100 µM (inactive) | GI50 [11]: > 100 µM (inactive) | GI50 [12]: > 100 µM (inactive) | GI50 [13]: > 100 µM (inactive) | GI50 [14]: > 100 µM | GI50 [15]: > 100 µM (inactive) | GI50 [16]: > 100 µM (inactive) | GI50 [17]: > 100 µM (inactive) | GI50 [18]: > 100 µM (inactive) | GI50 [19]: > 100 µM (inactive) | GI50 [20]: > 100 µM (inactive) | GI50 [21]: > 100 µM (inactive) | GI50 [22]: > 100 µM (inactive) | GI50 [23]: > 100 µM (inactive) | GI50 [24]: > 100 µM (inactive) | GI50 [25]: > 100 µM (inactive) | GI50 [26]: > 100 µM (inactive) | GI50 [27]: > 100 µM (inactive) | GI50 [28]: > 100 µM (inactive) | GI50 [29]: > 100 µM (inactive) | GI50 [30]: > 100 µM (inactive) | GI50 [31]: > 100 µM (inactive) | GI50 [32]: > 100 µM (inactive) | GI50 [33]: > 100 µM (inactive) | GI50 [34]: > 100 µM (inactive) | GI50 [35]: > 100 µM (inactive) | GI50 [36]: > 100 µM (inactive) | GI50 [37]: > 100 µM (inactive) | GI50 [38]: > 100 µM (inactive) | GI50 [39]: > 100 µM (inactive) | GI50 [40]: > 100 µM (inactive) | GI50 [41]: > 100 µM (inactive) | GI50 [42]: > 100 µM (inactive) | GI50 [43]: > 100 µM (inactive) | GI50 [44]: > 100 µM (inactive) | GI50 [45]: > 100 µM (inactive) | GI50 [46]: > 100 µM (inactive) | GI50 [47]: > 100 µM (inactive) | GI50 [48]: > 100 µM (inactive) | GI50 [49]: > 100 µM (inactive) | GI50 [50]: > 100 µM (inactive) | GI50 [51]: > 100 µM (inactive) | GI50 [52]: > 100 µM (inactive) | GI50 [53]: > 100 µM (inactive) | GI50 [54]: > 100 µM (inactive) | GI50 [55]: > 100 µM (inactive) | GI50 [56]: > 100 µM (inactive) | GI50 [57]: > 100 µM (inactive) | GI50 [58]: > 100 µM (inactive)

CC1(O)C=CC(=O)C=C1
GI50 [1]: 20.7 µM (inactive) | GI50 [2]: 37.6 µM (inactive) | GI50 [3]: > 76.4 µM (inactive) | GI50 [4]: 27.5 µM (inactive) | GI50 [5]: 30.8 µM (inactive) | GI50 [6]: 22.2 µM (inactive) | GI50 [7]: 34.8 µM (inactive) | GI50 [8]: 12.4 µM (inactive) | GI50 [9]: 16.4 µM (inactive) | GI50 [10]: 18.3 µM (inactive) | GI50 [11]: 47.3 µM (inactive) | GI50 [12]: > 71.6 µM (inactive) | GI50 [13]: 60.1 µM (inactive) | GI50 [14]: 16 µM | GI50 [15]: 16.4 µM (inactive) | GI50 [16]: 58.2 µM (inactive) | GI50 [17]: > 52.6 µM (inactive) | GI50 [18]: > 100 µM (inactive) | GI50 [19]: 38.4 µM (inactive) | GI50 [20]: 26.8 µM (inactive) | GI50 [21]: 33.5 µM (inactive) | GI50 [22]: 32 µM (inactive) | GI50 [23]: > 48.2 µM (inactive) | GI50 [24]: 20.4 µM (inactive) | GI50 [25]: 13.3 µM (inactive) | GI50 [26]: 20.1 µM (inactive) | GI50 [27]: 22.6 µM (inactive) | GI50 [28]: 19.2 µM (inactive) | GI50 [29]: 20.3 µM (inactive) | GI50 [30]: > 100 µM (inactive) | GI50 [31]: 30.3 µM (inactive) | GI50 [32]: 20.3 µM (inactive) | GI50 [33]: 18.6 µM (inactive) | GI50 [34]: 24.2 µM (inactive) | GI50 [35]: 40.9 µM (inactive) | GI50 [36]: 98.2 µM (inactive) | GI50 [37]: 25.3 µM (inactive) | GI50 [38]: 30.1 µM (inactive) | GI50 [39]: 21.6 µM (inactive) | GI50 [40]: 13.9 µM (inactive) | GI50 [41]: 57.1 µM (inactive) | GI50 [42]: 23.5 µM (inactive) | GI50 [43]: 18.8 µM (inactive) | GI50 [44]: 24.7 µM (inactive) | GI50 [45]: > 55 µM (inactive) | GI50 [46]: > 100 µM (inactive) | GI50 [47]: 52.7 µM (inactive) | GI50 [48]: 25.7 µM (inactive) | GI50 [49]: > 56.1 µM (inactive) | GI50 [50]: 34.8 µM (inactive) | GI50 [51]: 16.2 µM (inactive) | GI50 [52]: 59.2 µM (inactive) | GI50 [53]: 44.1 µM (inactive) | GI50 [54]: 21.9 µM (inactive) | GI50 [55]: 17.7 µM (inactive) | GI50 [56]: 18.5 µM (inactive) | GI50 [57]: 36.6 µM (inactive) | GI50 [58]: 29.1 µM (inactive)
